{"source": "paper PMC12455130", "about": "“Multifunctional molecular agent for tau-targeted combinational therapy of Alzheimer’s disease” (The Journal of Biological Chemistry, 2025)", "key": {"tau peptide R3 [1]": {"target": "T1, tau peptide R3 (Homo sapiens, UniProt P10636)", "T1 construct": "R3 (^306VQIVYK PVDLSK VTSKCG SLGNIH HKPGGG Q^336) and rabbit anti-tau antibody were purchased from MuJin; purchased MuJin", "T1 sequence (P10636 623-653 limits assumed)": "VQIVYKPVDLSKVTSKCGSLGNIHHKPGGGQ", "assay": "ThS assay, Cu2+-promoted heparin-induced R3 aggregation", "assay_type": "biochemical", "conditions": "R3 15 μM, Cu2+ 3.8 μM, compound 10 μM, heparin 3.8 μM, 3 h", "text": "Metal ions, especially Cu^2+, are believed to be highly compatible with cysteine residues of tau peptide as a coordination center ([26]). Accompanied by the formation of intermolecular S–Cu–S bridging coordination bond, or intermolecular disulfide bond, these metal ions have been proven to promote tau aggregation ([27]). After confirming that 4GA and 2GA can effectively remove copper ions through coordination, we further explore their effects on R3 aggregation under the promotion of Cu^2+. […] Heparin was used to initiate the aggregation ([15]). […] As a comparison, the effects of the precursor compounds: 4ME, 3ME, 2ME, and 1ME, on Cu^2+-promoted R3 aggregation were also examined (Fig. S15).\nFigure 5 Kinetic curves and TEM image of R3 aggregation with 4GA or 2GA.A, kinetic curves of the R3 (15 μM) aggregation monitored by ThS fluorescence assay in different conditions. B, ThS fluorescence intensity of R3 (15 μM) incubated for 3 h in different conditions. C, TEM image of R3 fibrils in different conditions. Negatively stained with uranyl acetate. Scale bar represents 200 nm. Final concentrations of R3, Cu^2+, and inhibitors are 15, 3.8, and 10 μM, respectively. All aggregations were initiated by heparin (3.8 μM). 2GA, (4,10-dimethyl-1,4,7,10-tetraazacyclododecane-1,7-diyl)bis((3,4,5-trihydroxyphenyl)methanone); 4GA, (1,4,7,10-tetraazacyclododecane-1,4,7,10-tetrayl)tetrakis((3,4,5-trihydroxyphenyl)methanone); TEM, transmission electron microscopy; ThS, thioflavin S.\nThe promotion of Cu^2+ on R3 aggregation was also inspected, similar to the aforementioned operation, unless that 3.8 μM Cu^2+ was also included, and using 50 mM Hepes (pH 7.4) as the buffer solution.\nFig. S15 ThS fluorescence intensity of R3 (15 µM) incubated for 3 h. Final concentrations of R3, Cu^2+, and compounds are 15, 3.8 and 10 µM, respectively. All aggregations were initiated by heparin (3.8 µM)."}, "tau peptide R3 [2]": {"target": "T1, tau peptide R3", "assay": "ThS assay, heparin-induced R3 aggregation (kinetics and dose-response)", "assay_type": "biochemical", "conditions": "80 μM compound, 15 μM R3, 3.8 μM heparin, 37 °C, 3 h", "method": "The inhibition effect of 4GA–2GA on R3 aggregation was explored by thioflavin S (ThS) assay ([24]). In general, the kinetics of R3 aggregation in the absence or the presence of 4GA, 2GA was assessed by measuring the emission intensity of ThS at 500 nm, which reflects the amount of R3 aggregates. As the control experiments, the aggregation kinetics of 4ME and GA were also carried out. While induced by heparin, R3 aggregates rapidly at 37 °C, and the fluorescence of ThS reaches a maximum after an average time of 200 s (Fig. 4A). Based on the aforementioned conditions, the inhibitory ability of our synthetic compounds at three different concentrations (5, 10, and 40 μM) was tested.\nNext, the dose–response inhibitory effects of our synthetic compounds on R3 aggregation were investigated. The detailed experimental operation was descripted in ESI. […] The apparent values of IC50 were calculated according to the dose−response curve.\nTau peptide R3 was adjusted to a concentration of 15 μM using 50 mM Tris−HCl buffer (pH 7.4), ThS (final concentration of 10 μM), and different amounts of 4GA, 2GA, 4ME, and GA (final concentration of 0, 5, 10, and 40 μM) as the aggregation inhibitor were added in1to the reaction mixture. Aggregation was induced by adding heparin to the solution (final concentration of 3.8 μM); the kinetics of each sample was immediately monitored by a fluorescence spectrophotometer with a 10-mm quartz cell at 440/500 nm (excitation/emission). A circulating water bath was necessary to maintain the temperature at 37 °C.\nTau peptide R3 was adjusted to a concentration of 15 μM using 50 mM Tris–HCl buffer (pH 7.4). Different amounts of 4GA, 2GA, 4ME, and GA (final concentration of 0, 1, 2, 4, 6, 10, 15, 20, 30, 40, 60, or 80 μM) as the aggregation inhibitors were added into the reaction mixture. Aggregation was induced by adding heparin to the solution (final concentration of 3.8 μM), After 3 h incubation at 37°C, ThS (final concentration of 10 μM) was added, and the fluorescence intensity at 440/500 nm (excitation/emission) was recorded on Hitachi F-7000 with a 10-mm quartz cell. The dose−response inhibitory effects of R3 aggregation were expressed by the aggregation percentage, which was calculated according to the following (Formula 4.3):(4.3) aggregation%=F-F0/Ft-F0×100\nwhere F0 = fluorescence intensity of R3 monomer, Ft = fluorescence intensity of R3 aggregate, and F = fluorescence intensity of R3 aggregate in the presence of inhibitors. The IC50 values were also calculated according to the dose−response inhibitory effects.\nTau peptide R3 was adjusted to a concentration of 15 μM using Tris−HCl buffer (pH 7.4), and the synthetic compounds (4GA, 2GA, together with 4ME, GA as the comparison) at different concentrations, as aggregation inhibitor, were added into the reaction mixture separately. Aggregation was induced by heparin, and incubated at 37 °C for 3 h. By introducing fluorescence probe ThS, the dose−response inhibitory effects on R3 aggregation were recorded, according to normalized ThS fluorescence intensity (excitation: 440 nm, emission: 500 nm).\nFigure S14. Inhibitory effects of N-substituted Azacrown on heparin-induced R3 aggregation, exermined by ThS fluorescence: 15 μM R3 and 3.8 μM heparin with cyclen, 1ME, 2ME, 3ME, and 4ME (80 μM) was incubated respectively at 37°C for 3h. 10 μM ThS was added to each of the solution, Spectra of ThS fluorescence were recorded at Ex440 nm."}, "tau protein": {"system": "tau protein", "conditions": "cited from earlier work"}, "[3]": {"design": "method as in PMID 19496588", "conditions": "cited from earlier work"}, "tau peptide R3 [4]": {"target": "T1, tau peptide R3", "design": "method as in PMID 23442089", "conditions": "reported earlier; read-out: IC50 on R3 aggregation; cited from earlier work"}}, "note": "pIC50: −log10 of the molar value.", "data": [{"compound": "CN1CCNCCNCCNCC1", "note": "[1ME, 1-methyl-1,4,7,10-tetraazacyclododecane]", "values": [{"measurement": "ThS fluorescence intensity of R3 aggregation in the presence of Cu2+", "setting": "tau peptide R3 [1]", "value": "only to a level close to the case of R3 aggregation in the absence of Cu^2+"}, {"measurement": "effect on heparin-induced R3 aggregation (ThS fluorescence at 500 nm)", "setting": "tau peptide R3 [2]", "value": "did not hinder the aggregation of R3 peptides"}]}, {"compound": "CN1CCNCCN(C)CCN(C)CC1", "note": "[3ME, 1,4,7-trimethyl-1,4,7,10-tetraazacyclododecane]", "values": [{"measurement": "ThS fluorescence intensity of R3 aggregation in the presence of Cu2+", "setting": "tau peptide R3 [1]", "value": "only to a level close to the case of R3 aggregation in the absence of Cu^2+"}, {"measurement": "effect on heparin-induced R3 aggregation (ThS fluorescence at 500 nm)", "setting": "tau peptide R3 [2]", "value": "did not hinder the aggregation of R3 peptides"}]}, {"compound": "Nc1nc(=O)c2nc(CNc3ccc(C(=O)N[C@@H](CCC(=O)O)C(=O)O)cc3)cnc2[nH]1", "note": "[folic acid]", "values": [{"measurement": "binding ability to tau protein", "setting": "tau protein", "value": 230000, "unit": "M⁻¹"}]}, {"compound": "C1CNCCNCCNCCN1", "note": "[cyclen, 1,4,7,10-tetraazacyclododecane]", "values": [{"measurement": "log KCu-cyclen (thermodynamic stability)", "setting": "[3]", "value": 24.8}]}, {"compound": "C=C(C)[C@@H]1CCC(C)=C[C@H]1c1c(O)cc(CCCCC)cc1O", "note": "[cannabidiol]", "values": [{"measurement": "binding ability to tau protein", "setting": "tau protein", "value": 42100, "unit": "M⁻¹"}]}, {"compound": "tannic acid", "values": [{"measurement": "pIC50", "setting": "tau peptide R3 [4]", "value": 5.46}]}, {"compound": "1,4,7-trimethyl-1,4,7,10-tetraazacyclododecane [2ME]", "values": [{"measurement": "ThS fluorescence intensity of R3 aggregation in the presence of Cu2+", "setting": "tau peptide R3 [1]", "value": "only to a level close to the case of R3 aggregation in the absence of Cu^2+"}, {"measurement": "effect on heparin-induced R3 aggregation (ThS fluorescence at 500 nm)", "setting": "tau peptide R3 [2]", "value": "did not hinder the aggregation of R3 peptides"}]}]}
